{"source": "patent US20250360132A1", "about": "“METHODS OF ADMINISTERING MYOSIN INHIBITORS” (MYOKARDIA, INC., priority 2022, published 2025)", "key": {"[1]": {"tested_on": "adults with symptomatic NYHA class II and III obstructive HCM", "conditions": "Olivotto et al., 2020, The Lancet; cited from earlier work"}, "CYP3A4 [2]": {"target": "T1, CYP3A4 (Homo sapiens, UniProt P08684)", "T1 sequence (P08684 whole entry)": "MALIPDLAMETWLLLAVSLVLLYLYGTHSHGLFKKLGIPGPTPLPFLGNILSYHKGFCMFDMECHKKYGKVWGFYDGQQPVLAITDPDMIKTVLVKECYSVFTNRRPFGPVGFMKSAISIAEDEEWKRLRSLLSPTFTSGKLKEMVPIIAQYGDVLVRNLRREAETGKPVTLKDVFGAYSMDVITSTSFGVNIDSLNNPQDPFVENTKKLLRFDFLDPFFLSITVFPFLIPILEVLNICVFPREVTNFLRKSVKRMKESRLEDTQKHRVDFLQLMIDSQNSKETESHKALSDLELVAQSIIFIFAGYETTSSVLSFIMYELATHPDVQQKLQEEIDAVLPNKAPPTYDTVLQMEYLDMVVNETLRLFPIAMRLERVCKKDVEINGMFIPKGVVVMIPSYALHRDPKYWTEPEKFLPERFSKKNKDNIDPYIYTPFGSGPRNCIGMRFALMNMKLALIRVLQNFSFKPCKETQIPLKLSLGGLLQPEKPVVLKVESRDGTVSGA", "assay": "Metabolism, contribution of CYP3A4", "type": "in vitro ADME", "source_text": "(§1) Mavacamten is extensively metabolized, primarily through CYP2C19 (74%), CYP3A4 (18%), and CYP2C9 (8%).\n(§2) Statement of Purpose: Mavacamten is a first-in-class, selective, allosteric, and reversible cardiac myosin inhibitor in development for the treatment of adults with symptomatic obstructive hypertrophic cardiomyopathy. Mavacamten is hepatically metabolized predominantly via CYP2C19 (74%), CYP3A4 (18%) and CYP2C9 (8%). A previously developed fit-for-purpose physiologically based pharmacokinetic (PBPK) model was applied to explore the induction effects of a strong CYP3A4/CYP2C19 inducer-rifampin, as well as a strong CYP3A4 inducer-carbamazepine, on mavacamten exposures."}, "BCRP": {"target": "BCRP (Homo sapiens, UniProt Q9UNQ0)", "sequence (Q9UNQ0 whole entry)": "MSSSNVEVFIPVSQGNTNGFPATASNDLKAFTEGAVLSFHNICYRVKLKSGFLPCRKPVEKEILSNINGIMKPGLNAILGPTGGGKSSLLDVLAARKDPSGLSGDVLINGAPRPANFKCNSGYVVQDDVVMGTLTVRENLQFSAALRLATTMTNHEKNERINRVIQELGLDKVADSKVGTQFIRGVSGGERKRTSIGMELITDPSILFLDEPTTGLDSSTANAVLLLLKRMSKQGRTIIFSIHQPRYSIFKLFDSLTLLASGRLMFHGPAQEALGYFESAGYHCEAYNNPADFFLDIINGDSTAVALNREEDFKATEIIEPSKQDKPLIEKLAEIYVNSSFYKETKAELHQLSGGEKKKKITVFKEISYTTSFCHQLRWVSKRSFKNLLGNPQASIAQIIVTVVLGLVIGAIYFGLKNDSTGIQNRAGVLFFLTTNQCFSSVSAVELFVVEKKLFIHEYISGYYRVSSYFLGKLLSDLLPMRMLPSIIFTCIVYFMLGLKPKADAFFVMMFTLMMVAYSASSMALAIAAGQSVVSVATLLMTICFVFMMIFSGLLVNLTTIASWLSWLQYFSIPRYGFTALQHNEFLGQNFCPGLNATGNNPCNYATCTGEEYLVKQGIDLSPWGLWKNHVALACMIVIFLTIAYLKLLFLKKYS", "assay": "In vitro transporter inhibition", "type": "in vitro ADME"}, "[3]": {"tested_on": "organic anion transporting polypeptides (OATPs)", "assay": "In vitro transporter inhibition", "type": "in vitro ADME"}, "[4]": {"tested_on": "organic anion transporters (OATs)", "assay": "In vitro transporter inhibition", "type": "in vitro ADME"}, "MATE2-K": {"target": "MATE2-K (Homo sapiens, UniProt Q86VL8)", "sequence (Q86VL8 1-566 isoform Q86VL8-3)": "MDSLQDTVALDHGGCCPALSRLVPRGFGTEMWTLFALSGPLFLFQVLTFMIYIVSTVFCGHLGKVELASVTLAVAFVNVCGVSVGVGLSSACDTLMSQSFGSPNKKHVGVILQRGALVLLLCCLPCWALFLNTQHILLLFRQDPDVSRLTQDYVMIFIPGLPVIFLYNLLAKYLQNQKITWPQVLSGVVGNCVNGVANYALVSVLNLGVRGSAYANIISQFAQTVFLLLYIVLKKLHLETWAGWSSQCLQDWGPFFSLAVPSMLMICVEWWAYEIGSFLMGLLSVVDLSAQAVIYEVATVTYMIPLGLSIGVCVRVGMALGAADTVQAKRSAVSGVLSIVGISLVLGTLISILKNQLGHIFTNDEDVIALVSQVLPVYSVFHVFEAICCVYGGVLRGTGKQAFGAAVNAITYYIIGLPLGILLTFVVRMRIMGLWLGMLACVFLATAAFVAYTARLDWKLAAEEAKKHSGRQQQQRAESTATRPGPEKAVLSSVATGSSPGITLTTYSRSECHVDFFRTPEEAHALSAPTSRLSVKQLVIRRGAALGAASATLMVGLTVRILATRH", "assay": "In vitro transporter inhibition", "type": "in vitro ADME"}, "[5]": {"tested_on": "organic cation transporters (OCTs)", "assay": "In vitro transporter inhibition", "type": "in vitro ADME"}, "[6]": {"tested_on": "adults with symptomatic NYHA class II and III obstructive HCM", "assay": "EXPLORER-HCM Phase 3, double-blind, randomized, placebo-controlled trial", "type": "in vivo, human", "protocol": "The safety of MAVACAMTEN was evaluated in EXPLORER-HCM, a Phase 3, double-blind, randomized, placebo-controlled trial. Of the 251 adults with obstructive HCM, 123 patients were treated with MAVACAMTEN 2.5-15 mg daily and 128 were treated with placebo.\nThe efficacy of MAVACAMTEN was evaluated in EXPLORER-HCM (NCT-03470545) a Phase 3, double-blind, randomized, placebo-controlled, multicenter, international, parallel-group trial in 251 adults with symptomatic NYHA class II and III obstructive HCM, LVEF ≥55%, and Valsalva LVOT peak gradient ≥50 mmHg at rest or with provocation.\nPatients on dual therapy with beta blocker and calcium channel blocker treatment or monotherapy with disopyramide or ranolazine were excluded. Patients with a known infiltrative or storage disorder causing cardiac hypertrophy that mimicked obstructive HCM, such as Fabry disease, amyloidosis, or Noonan syndrome with left ventricular hypertrophy, were also excluded.\nPatients were randomized in a 1:1 ratio to receive either a starting dose of 5 mg of MAVACAMTEN or placebo once daily for 30 weeks. Treatment assignment was stratified by baseline NYHA functional class, baseline use of beta blockers, and type of ergometer (treadmill or exercise bicycle).\nAll patients were initiated on MAVACAMTEN 5 mg (or matching placebo) once daily, and the dose was periodically adjusted to optimize patient response (decrease in LVOT gradient with Valsalva maneuver) and maintain LVEF ≥50%. The dose was also informed by plasma concentrations of MAVACAMTEN.\nThe primary composite functional endpoint, assessed at 30 weeks, was defined as the proportion of patients who achieved either improvement of […] (pVO2) by ≥1.5 mL/kg/min plus improvement in NYHA class by at least 1 or improvement of pVO2 by ≥3.0 mL/kg/min plus no worsening in NYHA class.\nThe treatment effects of MAVACAMTEN on LVOT obstruction, functional capacity, and health status were assessed by change from baseline through Week 30 in post-exercise LVOT peak gradient, change in pVO2, proportion of patients with improvement in NYHA class, Kansas City Cardiomyopathy Questionnaire-23 (KCCQ-23) Clinical Summary Score (CSS), and Hypertrophic Cardiomyopathy Symptom Questionnaire (HCMSQ) Shortness of Breath (SoB) domain score.\nMissing data were not imputed to summarize the baseline and change from baseline to Week 30 values. Difference in mean change from baseline between treatment groups was estimated using a mixed model for repeated measures."}, "P-gp": {"target": "P-gp (Homo sapiens, UniProt P08183)", "sequence (P08183 whole entry)": "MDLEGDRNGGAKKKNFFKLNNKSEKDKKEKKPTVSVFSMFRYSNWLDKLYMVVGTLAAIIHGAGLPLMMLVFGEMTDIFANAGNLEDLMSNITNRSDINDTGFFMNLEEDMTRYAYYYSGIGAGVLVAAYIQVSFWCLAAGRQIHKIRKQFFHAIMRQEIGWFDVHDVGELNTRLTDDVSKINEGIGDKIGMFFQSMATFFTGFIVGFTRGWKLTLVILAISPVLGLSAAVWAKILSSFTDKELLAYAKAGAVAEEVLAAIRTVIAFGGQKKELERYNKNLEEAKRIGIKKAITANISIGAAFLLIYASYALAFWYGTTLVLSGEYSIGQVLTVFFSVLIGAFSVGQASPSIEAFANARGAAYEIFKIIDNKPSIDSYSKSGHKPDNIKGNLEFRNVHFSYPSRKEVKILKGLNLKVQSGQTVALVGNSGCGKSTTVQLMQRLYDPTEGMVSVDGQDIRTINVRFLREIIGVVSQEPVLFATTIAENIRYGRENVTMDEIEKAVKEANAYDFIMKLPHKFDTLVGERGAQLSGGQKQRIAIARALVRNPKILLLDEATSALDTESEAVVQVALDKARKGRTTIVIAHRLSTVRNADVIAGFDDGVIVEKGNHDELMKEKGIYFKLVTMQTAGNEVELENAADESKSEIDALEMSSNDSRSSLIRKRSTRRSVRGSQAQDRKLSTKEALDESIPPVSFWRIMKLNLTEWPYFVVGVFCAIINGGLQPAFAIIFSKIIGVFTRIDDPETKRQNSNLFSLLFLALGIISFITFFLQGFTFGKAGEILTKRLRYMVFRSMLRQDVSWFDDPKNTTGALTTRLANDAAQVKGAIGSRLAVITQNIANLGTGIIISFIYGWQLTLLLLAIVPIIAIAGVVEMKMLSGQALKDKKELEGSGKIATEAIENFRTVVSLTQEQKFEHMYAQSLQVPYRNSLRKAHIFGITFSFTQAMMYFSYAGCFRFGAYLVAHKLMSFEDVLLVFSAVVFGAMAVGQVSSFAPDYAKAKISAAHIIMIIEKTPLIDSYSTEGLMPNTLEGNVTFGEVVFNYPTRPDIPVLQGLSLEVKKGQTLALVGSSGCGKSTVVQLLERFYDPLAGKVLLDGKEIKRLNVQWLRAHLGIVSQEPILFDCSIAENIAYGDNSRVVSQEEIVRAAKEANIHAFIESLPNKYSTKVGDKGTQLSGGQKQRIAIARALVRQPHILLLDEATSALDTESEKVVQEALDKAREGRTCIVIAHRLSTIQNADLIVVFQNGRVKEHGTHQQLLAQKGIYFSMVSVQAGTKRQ", "assay": "In vitro transporter inhibition", "type": "in vitro ADME"}, "CYP3A4 [7]": {"target": "T1, CYP3A4", "assay": "In vitro CYP inhibition", "type": "in vitro ADME", "conditions": "at clinically relevant concentrations", "source_text": "(§3) Mavacamten is a CYP2B6 inducer."}, "CYP2C19 [8]": {"target": "CYP2C19 (Homo sapiens, UniProt P33261)", "sequence (P33261 whole entry)": "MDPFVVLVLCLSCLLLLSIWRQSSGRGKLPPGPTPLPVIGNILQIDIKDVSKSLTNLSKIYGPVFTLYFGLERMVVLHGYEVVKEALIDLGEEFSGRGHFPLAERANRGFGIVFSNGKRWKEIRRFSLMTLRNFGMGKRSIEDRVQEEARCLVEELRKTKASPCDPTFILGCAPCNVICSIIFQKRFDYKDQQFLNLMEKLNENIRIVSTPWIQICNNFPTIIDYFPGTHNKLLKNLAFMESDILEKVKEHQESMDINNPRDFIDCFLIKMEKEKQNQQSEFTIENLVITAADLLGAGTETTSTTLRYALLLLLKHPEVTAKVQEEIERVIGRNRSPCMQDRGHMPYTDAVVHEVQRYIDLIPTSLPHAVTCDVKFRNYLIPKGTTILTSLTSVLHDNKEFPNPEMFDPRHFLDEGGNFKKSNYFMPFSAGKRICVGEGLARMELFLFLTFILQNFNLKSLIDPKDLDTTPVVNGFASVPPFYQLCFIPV", "assay": "Metabolism, contribution of CYP2C19", "type": "in vitro ADME", "source_text": "as §1, §2"}, "CYP2B6": {"tested_on": "CYP2B6", "assay": "In vitro CYP induction", "type": "in vitro ADME", "source_text": "as §3"}, "CYP2C9": {"target": "CYP2C9 (Homo sapiens, UniProt P11712)", "sequence (P11712 whole entry)": "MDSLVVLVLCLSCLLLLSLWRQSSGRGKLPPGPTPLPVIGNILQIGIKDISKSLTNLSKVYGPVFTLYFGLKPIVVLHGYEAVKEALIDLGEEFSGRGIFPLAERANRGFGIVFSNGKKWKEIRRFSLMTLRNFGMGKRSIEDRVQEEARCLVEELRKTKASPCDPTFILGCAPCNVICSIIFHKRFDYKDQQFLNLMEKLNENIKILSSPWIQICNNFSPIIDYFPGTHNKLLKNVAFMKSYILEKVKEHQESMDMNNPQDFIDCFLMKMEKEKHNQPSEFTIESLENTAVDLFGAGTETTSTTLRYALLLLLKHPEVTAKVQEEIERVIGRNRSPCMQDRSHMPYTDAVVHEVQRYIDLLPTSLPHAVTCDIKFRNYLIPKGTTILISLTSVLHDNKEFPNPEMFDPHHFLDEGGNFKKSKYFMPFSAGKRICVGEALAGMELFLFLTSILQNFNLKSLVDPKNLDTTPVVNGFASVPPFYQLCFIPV", "assay": "Metabolism, contribution of CYP2C9", "type": "in vitro ADME", "source_text": "as §1, §2"}, "CYP2C19 [9]": {"tested_on": "CYP2C19", "assay": "Pharmacogenomics: CYP2C19 PMs vs NMs, single dose", "type": "in vivo, human", "conditions": "single dose of 15 mg mavacamten", "source_text": "Mean half-life is prolonged in CYP2C19 PMs compared to NMs (23 days vs. 6 to 9 days, respectively).\nPolymorphic CYP2C19 is the main enzyme involved in the metabolism of MAVACAMTEN. An individual carrying two normal function alleles is a NM (e.g., *1/*1). An individual carrying two no function alleles is a PM (e.g., *2/*2, *2/*3, *3/*3)."}}, "data": [{"smiles": "CC(C)n1c(=O)cc(N[C@@H](C)c2ccccc2)[nH]c1=O", "note": "[mavacamten, (S)-3-Isopropyl-6-((1-phenylethyl)amino)pyrimidine-2,4(1H,3H)-dione]", "values": [{"measurement": "Clinical benefit in EXPLORER-HCM", "setting": "[1]", "result": "effective in reducing LVOT gradients and improving symptoms, exercise performance and health status"}, {"measurement": "Metabolism through CYP3A4", "setting": "CYP3A4 [2]", "result": 18, "unit": "%"}, {"measurement": "Inhibition of BCRP", "setting": "BCRP", "result": "does not inhibit"}, {"measurement": "Inhibition of OATPs", "setting": "[3]", "result": "does not inhibit"}, {"measurement": "Inhibition of OATs", "setting": "[4]", "result": "does not inhibit"}, {"measurement": "Inhibition of MATE2-K", "setting": "MATE2-K", "result": "does not inhibit"}, {"measurement": "Inhibition of OCTs", "setting": "[5]", "result": "does not inhibit"}, {"measurement": "Subgroup analysis of the primary composite functional endpoint", "setting": "[6]; FIG. 17", "result": "consistently favored MAVACAMTEN across all subgroups analyzed"}, {"measurement": "Adverse reaction: syncope, patients", "setting": "[6]; MAVACAMTEN 2.5-15 mg daily, N=123, placebo 2%", "result": 6, "unit": "%"}, {"measurement": "Adverse reaction: dizziness, patients", "setting": "[6]; MAVACAMTEN 2.5-15 mg daily, N=123, placebo 18%", "result": 27, "unit": "%"}, {"measurement": "Improvement across secondary endpoints vs placebo", "setting": "[6]; Week 30", "result": "greater improvement compared to the placebo group across all secondary endpoints"}, {"measurement": "NYHA Class improved ≥1, difference vs placebo", "setting": "[6]; Week 30", "result": 34, "unit": "%"}, {"measurement": "Total responders, difference vs placebo (95% CI)", "setting": "[6]; Week 30", "result": "19% (9, 30)"}, {"measurement": "pVO2 ≥1.5 mL/kg/min and decreased NYHA, difference vs placebo (95% CI)", "setting": "[6]; Week 30", "result": "19% (9, 30)"}, {"measurement": "pVO2 ≥3 mL/kg/min and NYHA not increased, difference vs placebo (95% CI)", "setting": "[6]; Week 30", "result": "13% (3, 22)"}, {"measurement": "Change from baseline pVO2 ≥1.5 mL/kg/min and decreased NYHA, number", "setting": "[6]; Week 30, N=123", "result": 41}, {"measurement": "Change from baseline pVO2 ≥3 mL/kg/min and NYHA not increased, number", "setting": "[6]; Week 30, N=123", "result": 29}, {"measurement": "Number with NYHA Class improved ≥1", "setting": "[6]; Week 30, N=123", "result": 80}, {"measurement": "Primary composite functional endpoint, total responders, number", "setting": "[6]; Week 30, N=123", "result": 45}, {"measurement": "Primary composite functional endpoint, total responders, percent", "setting": "[6]; Week 30, N=123, placebo 17%", "result": 37, "unit": "%"}, {"measurement": "KCCQ-23 CSS, change from baseline, mean", "setting": "[6]; Week 30, n=99, placebo 4", "result": 14}, {"measurement": "HCMSQ SoB, change from baseline, mean", "setting": "[6]; Week 30, n=108, placebo −1", "result": "−3"}, {"measurement": "KCCQ-23 PL, change from baseline, mean", "setting": "[6]; Week 30, placebo 4", "result": 15}, {"measurement": "KCCQ-23 TSS, change from baseline, mean", "setting": "[6]; Week 30, placebo 5", "result": 12}, {"measurement": "Change from baseline pVO2 ≥3 mL/kg/min and NYHA not increased, percent", "setting": "[6]; Week 30, placebo 11%", "result": 23, "unit": "%"}, {"measurement": "Change from baseline pVO2 ≥1.5 mL/kg/min and decreased NYHA, percent", "setting": "[6]; Week 30, placebo 14%", "result": 33, "unit": "%"}, {"measurement": "Percent with NYHA Class improved ≥1", "setting": "[6]; Week 30, placebo 31%", "result": "(65%)"}, {"measurement": "LVEF outcome after interruption in patients with LVEF <50%", "setting": "[6]; all 7 patients", "result": "LVEF recovered following interruption"}, {"measurement": "Benefit by background beta blocker therapy", "setting": "[6]; attenuated improvement in pVO2", "result": "smaller in patients on background beta blocker therapy"}, {"measurement": "Post-Exercise LVOT gradient, difference vs placebo", "setting": "[6]; baseline to Week 30", "result": "−35", "unit": "mmHg"}, {"measurement": "pVO2, difference vs placebo", "setting": "[6]; baseline to Week 30", "result": 1.4, "unit": "mL/kg/min"}, {"measurement": "Change in pVO2, mean", "setting": "[6]; baseline to Week 30, placebo −0.1", "result": 1.4, "unit": "mL/kg/min"}, {"measurement": "Change in Post-Exercise LVOT gradient, mean", "setting": "[6]; baseline to Week 30, placebo −10", "result": "−47", "unit": "mmHg"}, {"measurement": "patients who temporarily interrupted their dose due to LVEF <50%", "setting": "[6]; in vivo", "result": "Three"}, {"measurement": "patients whose LVEF reduction to <50% was asymptomatic", "setting": "[6]; of the 7 MAVACAMTEN patients", "result": 3}, {"measurement": "mean (SD) absolute change from baseline in LVEF", "setting": "[6]; over the 30-week treatment period, placebo 0% (7)", "result": "-4% (8)"}, {"measurement": "Syncope leading to discontinuation, patients", "setting": "[6]; patients receiving MAVACAMTEN", "result": 0.8, "unit": "%"}, {"measurement": "onset of reduction in LVOT gradient", "setting": "[6]; sustained throughout the 30-week trial", "result": "reductions in mean resting and provoked (Valsalva) LVOT gradient by Week 4"}, {"measurement": "patients with reversible reductions in LVEF to <50%, number", "setting": "[6]; while on treatment, N=123", "result": 7}, {"measurement": "patients with reversible reductions in LVEF to <50%, percent", "setting": "[6]; while on treatment, placebo 2%", "result": 6, "unit": "%"}, {"measurement": "Inhibition of P-gp", "setting": "P-gp", "result": "does not inhibit"}, {"measurement": "Inhibition of CYP3A4", "setting": "CYP3A4 [7]", "result": "not an inhibitor"}, {"measurement": "Metabolism through CYP2C19", "setting": "CYP2C19 [8]", "result": 74, "unit": "%"}, {"measurement": "Induction of CYP2B6", "setting": "CYP2B6", "result": "inducer"}, {"measurement": "Metabolism through CYP2C9", "setting": "CYP2C9", "result": 8, "unit": "%"}, {"measurement": "Increase in AUCinf in CYP2C19 PMs compared to NMs", "setting": "CYP2C19 [9]", "result": 241, "unit": "%"}, {"measurement": "Increase in Cmax in CYP2C19 PMs compared to NMs", "setting": "CYP2C19 [9]", "result": 47, "unit": "%"}]}]}
